Like-named read-outs stand apart in the source and are kept apart here.
Key:
[1] = monotherapy, intravenous; cited from earlier work
human TLR7 = target: T1, human TLR7 (Homo sapiens, UniProt Q9NYK1); experiment: TLR7 pathway activation, parental HEK-Blue hTLR7 reporter cells (SEAP); assay type: cell-based
T1 construct: host or cells: HEK293 (HEK-Blue hTLR7); engineered variants additionally transfected with tumor antigen genes
T1 sequence (Q9NYK1 27-1049): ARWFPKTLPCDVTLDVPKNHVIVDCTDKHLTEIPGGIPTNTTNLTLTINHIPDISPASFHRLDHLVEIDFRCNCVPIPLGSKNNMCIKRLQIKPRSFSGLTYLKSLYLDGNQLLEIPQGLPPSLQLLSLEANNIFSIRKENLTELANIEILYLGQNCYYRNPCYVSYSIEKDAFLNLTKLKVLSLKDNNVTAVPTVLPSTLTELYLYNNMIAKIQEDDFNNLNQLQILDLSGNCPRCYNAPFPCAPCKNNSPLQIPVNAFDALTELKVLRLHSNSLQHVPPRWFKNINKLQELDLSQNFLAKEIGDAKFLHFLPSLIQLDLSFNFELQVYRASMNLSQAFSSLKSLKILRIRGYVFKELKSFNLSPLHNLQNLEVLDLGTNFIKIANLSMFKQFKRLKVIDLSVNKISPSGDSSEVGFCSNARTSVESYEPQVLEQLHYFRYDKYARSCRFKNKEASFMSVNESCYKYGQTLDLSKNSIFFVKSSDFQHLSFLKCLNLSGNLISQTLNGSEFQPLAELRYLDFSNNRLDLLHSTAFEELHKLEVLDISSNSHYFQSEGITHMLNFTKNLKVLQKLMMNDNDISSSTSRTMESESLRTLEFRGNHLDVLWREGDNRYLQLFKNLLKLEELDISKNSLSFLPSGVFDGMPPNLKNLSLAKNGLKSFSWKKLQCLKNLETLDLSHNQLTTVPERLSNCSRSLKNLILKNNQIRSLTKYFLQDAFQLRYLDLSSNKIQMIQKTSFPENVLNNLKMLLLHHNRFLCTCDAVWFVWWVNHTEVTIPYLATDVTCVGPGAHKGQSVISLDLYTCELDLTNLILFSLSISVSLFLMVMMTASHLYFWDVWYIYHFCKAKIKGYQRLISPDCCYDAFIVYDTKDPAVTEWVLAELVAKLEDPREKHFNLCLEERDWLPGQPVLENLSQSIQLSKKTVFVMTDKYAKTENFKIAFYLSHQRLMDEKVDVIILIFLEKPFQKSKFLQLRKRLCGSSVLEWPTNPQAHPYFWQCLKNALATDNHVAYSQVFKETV
Procedure: The below tests involving measuring the in vitro activity of some compounds of the disclosure on human TLR7 pathway were carried out using parental HEK-Blue™ hTLR7 cells and engineered tumor antigen-expressing HEK-Blue™ hTLR7 cells respectively as reporter cells.
(§1) HEK-Blue™ hTLR7 Cells (#hkb-htlr7) and HEK-Blue™ hTLR8 Cells (#hkb-htlr8) cells from InvivoGen and the engineered tumor antigen expressing cells were used according to the manufacturer's instructions. The HEK-Blue™ hTLR7 and HEK-Blue™ hTLR8 cells were obtained by co-transfection of the hTLR7 or hTLR8 gene in HEK293 cells and an optimized Secreted Embryonic Alkaline Phosphatase (SEAP) reporter gene which is placed under the control of the IFN-β minimal promoter fused to five NF-κB and AP-1-binding sites. The human tumor antigen expressing HEK-Blue™ hTLR7 and hTLR8 cells were obtained by transfection of the tumor antigen genes in the parental cells followed by a polyclonal selection to enrich in cells overexpressing the tumor antigen. Stimulation with a TLR7/8 ligand activates NF-kB and AP-1 which induce the production of SLAP. The cells are seeded in 96-well plate at 3.10E4 cells/well and incubated 24 hours at 37C, 5% CO2 before adding the conjugates to be evaluated. The cells are subsequently incubated with 3-fold serial dilutions of each of the compounds (0.01 nM to 1 μM) for 96 hours at 37° C., 5% CO2. Next, 20 μL of the supernatant is harvested and incubated with 200 μL of QUANTI-Blue™ Solution.

human TLR8 = target: T2, human TLR8 (Homo sapiens, UniProt Q9NR97); experiment: TLR8 pathway activation, parental HEK-Blue hTLR8 reporter cells (SEAP); assay type: cell-based; conditions: unnumbered table b703
T2 construct: host or cells: HEK293 (HEK-Blue hTLR8); engineered variant additionally transfected with the CEACAM5 tumor antigen gene
T2 sequence (Q9NR97 27-1041): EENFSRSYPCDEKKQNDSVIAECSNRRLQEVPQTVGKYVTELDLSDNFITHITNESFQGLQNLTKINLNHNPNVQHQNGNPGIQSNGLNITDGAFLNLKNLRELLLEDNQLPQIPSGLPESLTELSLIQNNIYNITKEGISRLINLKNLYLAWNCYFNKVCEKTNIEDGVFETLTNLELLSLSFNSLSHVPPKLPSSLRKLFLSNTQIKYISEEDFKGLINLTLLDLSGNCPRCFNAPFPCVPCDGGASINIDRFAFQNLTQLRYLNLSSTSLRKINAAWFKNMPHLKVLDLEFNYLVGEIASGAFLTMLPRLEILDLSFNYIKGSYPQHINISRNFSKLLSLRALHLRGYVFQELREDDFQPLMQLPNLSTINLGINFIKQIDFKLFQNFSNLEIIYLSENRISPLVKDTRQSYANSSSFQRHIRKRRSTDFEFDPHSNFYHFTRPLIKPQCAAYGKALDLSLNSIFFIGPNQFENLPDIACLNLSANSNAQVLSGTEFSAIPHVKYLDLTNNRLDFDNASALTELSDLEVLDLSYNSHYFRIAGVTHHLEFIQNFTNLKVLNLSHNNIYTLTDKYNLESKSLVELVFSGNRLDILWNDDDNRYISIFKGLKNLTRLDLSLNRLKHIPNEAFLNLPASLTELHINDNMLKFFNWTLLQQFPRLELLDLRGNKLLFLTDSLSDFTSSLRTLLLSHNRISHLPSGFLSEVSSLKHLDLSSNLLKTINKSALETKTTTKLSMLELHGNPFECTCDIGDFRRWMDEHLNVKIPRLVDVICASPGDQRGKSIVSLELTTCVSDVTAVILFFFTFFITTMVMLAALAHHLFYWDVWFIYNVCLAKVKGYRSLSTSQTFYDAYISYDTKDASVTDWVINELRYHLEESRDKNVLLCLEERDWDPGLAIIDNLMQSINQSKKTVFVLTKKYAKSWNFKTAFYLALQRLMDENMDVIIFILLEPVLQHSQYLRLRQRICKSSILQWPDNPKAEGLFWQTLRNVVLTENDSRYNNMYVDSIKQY
Text: as §1, with “evaluated.” for “evaluated. The cells are subsequently incubated with 3-fold serial dilutions of each of the compounds (0.01 nM to 1 μM) for 96 hours at 37° C., 5% CO2. Next, 20 μL of the supernatant is harvested and incubated with 200 μL of QUANTI-Blue™ Solution.”

[2] = tested on: NFkB pathway THP1-Dual cells; experiment: Stimulation of human THP-1 monocytic cells, THP1-Dual reporter cells (SEAP, NF-kB); assay type: cell-based
Procedure: The compounds/conjugates of formula (II) according to the disclosure were subjected to pharmacological testing for determining their activity on human monocytic cells that express at their membrane surface Fc receptors that show binding specificity for the Fc part of the compounds/conjugates of formula (II). The below tests involving measuring the in vitro activity of some compounds/conjugates of formula (II) of the disclosure were carried out using THP1-Dual™ cells as reporter monocyte cells. […] THP1-Dual™ cells (#thpd-nfis) from InvivoGen were used according to the manufacturer's instructions. The cells were obtained by stable integration of two inducible reporter constructs in human THP-1 monocyte cells: an optimized Secreted Embryonic Alkaline Phosphatase (SEAP) reporter gene which is placed under the control of the IFN-β minimal promoter fused to five NF-κB and three c-Rel binding sites and a Secreted Lucia luciferase gene which is placed under the control of an ISG54 minimal promoter fused with five interferon (IFN)-stimulated response elements. As a result, THP1-Dual™ cells allow to study the activation of the NF-κB pathway by monitoring the activity of SEAP, and the interferon regulatory factor pathway, by assessing the activity of Lucia luciferase.

[3] = target: Fc receptors at the membrane surface of human THP-1 monocytic cells; experiment: cell-based or functional assay
human MKN-45 tumor cells = experiment: Incucyte Immune Cell Killing Assay, co-culture of human PBMC and NucLight red-labelled MKN-45 tumor cells; assay type: cell-based; conditions: 10 nM, 120-hour incubation, PBMC + MKN-45 co-culture
Procedure: The conjugates according to the disclosure were subjected to pharmacological testing for determining their tumor cell killing activity via immune cell activation.
The below tests involving measuring the in vitro tumor cell killing activity of some compounds of the disclosure were carried out using Incucyte® Immune Cell Killing Assay consisting in co-culture of human peripheral blood mononuclear cells (PBMC) and NucLight red-labelled human MKN-45 tumor cells. This Immune Cell Killing Assay allows for direct, measurements of immune cell-mediated killing of MKN-45 tumor cells with the combination of real-time, automated analysis of tumor cell number.
MKN-45 (stomach tumor cell line, DSMZ Germany) were used as they present a very high expression of CEACAM5 (Antigen Binding Capacity ≈3.10E5 receptors per cell). To count living MKN-45 cells in real time without altering their function, MKN45 cells have been stained thanks to a lentiviral-based labeling reagent enabling expression of a nuclear-restricted red (Nuclight Red) fluorescent protein. […]
The plates were then placed in the Incucyte® live-cell analysis apparatus. The Incucyte® Cell-by-Cell Analysis module was used to quantify the number of NucLight red-labelled MKN-45 tumor cells over-time. […]

human CEACAM5 (human) = human CEACAM5 (human) (UniProt P06731); experiment: cell-based or functional assay
Chain of human CEACAM5 (human) (P06731 35-685 limits assumed): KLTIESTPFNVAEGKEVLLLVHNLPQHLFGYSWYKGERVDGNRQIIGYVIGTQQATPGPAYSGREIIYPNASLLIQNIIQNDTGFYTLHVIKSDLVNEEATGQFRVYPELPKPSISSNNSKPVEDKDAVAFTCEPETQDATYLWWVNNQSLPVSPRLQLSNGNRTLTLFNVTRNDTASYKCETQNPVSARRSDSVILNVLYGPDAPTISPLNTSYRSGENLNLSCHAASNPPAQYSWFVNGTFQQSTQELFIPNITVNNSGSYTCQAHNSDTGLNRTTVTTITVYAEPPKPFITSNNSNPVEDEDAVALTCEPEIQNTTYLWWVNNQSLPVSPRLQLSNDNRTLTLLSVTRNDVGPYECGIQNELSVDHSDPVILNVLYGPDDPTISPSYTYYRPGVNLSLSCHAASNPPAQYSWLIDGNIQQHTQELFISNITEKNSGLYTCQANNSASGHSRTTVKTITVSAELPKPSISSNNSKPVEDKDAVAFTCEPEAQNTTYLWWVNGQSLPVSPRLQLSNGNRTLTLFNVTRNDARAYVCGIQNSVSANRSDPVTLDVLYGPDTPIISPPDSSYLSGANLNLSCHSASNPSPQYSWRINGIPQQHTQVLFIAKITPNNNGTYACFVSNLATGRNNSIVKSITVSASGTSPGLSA

[4] = Table 1a, 96 hours, read-out: EC50 HEKBlue-hTLR7
[5] = Homo sapiens, THP1-Dual, Table 6, reference ligands

For `CCOCc1nc2c(N)nc3ccccc3c2n1CC(C)(C)O.O=S(=O)(O)O` [BDB-001], the “treatment-related adverse events, share of the enrolled patients” value [1] is given as “around 78%”.
With `CCOCc1nc2c(N)nc3ccccc3c2n1CC(C)(C)N` [Example 3M012, 1-(2-amino-2-methylpropyl)-2-(ethoxymethyl)-1H-imidazo[4,5-c]quinolin-4-amine, reference compound] the EC50 (human TLR7; [4]) was 518 nM, the EC50 (human TLR7; unnumbered table b703, read-out: EC50 on HEK-Blue ™ hTLR7 cells) was 518 nM and the EC50 (human TLR8) was 2540 nM.
With `CCOCc1nc2c(N)nc3ccccc3c2n1CC(C)(C)O` [Example R848, 4-amino-2-(ethoxymethyl)-alpha, alpha-dimethyl-1H-imidazo(4,5-c)quinoline-1-ethanol, reference compound] the EC50 [2, 5] was 212 nM and the EC50 ([2]; Homo sapiens, THP1-Dual, Table 7b, 96 hours) was 238 nM.
`CCNCc1nc2c(N)nc3ccccc3c2n1CC(C)(C)O` [Gardiquimod, reference compound] showed an EC50 [2, 5] of over 4000 nM.
For `CCCN(CCC)C(=O)C1=Cc2ccc(-c3ccc(C(=O)N4CCCC4)cc3)cc2N=C(N)C1` [Motolimod, reference compound], the EC50 [2, 5] was 394 nM.
“CEACAM5_Tusamitamab-PEG4-R848 ADC (Example 2) (antibody)” showed an EC50 NFkB pathway THP1-Dual cells [3] of 0.8 nM.
“CEACAM5_Tusamitamab-PEG4-R848 ADC [Example 2]” gave an EC50 ([2]; Table 7a, 96 hours) of 0.8 nM.
“CEACAM5_Tusamitamab-PEG8-R848 ADC (Example 8) (antibody)” gave an EC50 NFkB pathway THP1-Dual cells [3] of 1.9 nM.
In the case of “CEACAM5_Tusamitamab-PEG8-R848 ADC [Example 8]”, the EC50 ([2]; Table 7a, 96 hours) is reported as 1.9 nM.
For “CEACAM5_Tusamitamab-PEG12-R848 ADC (Example 14) (antibody)”, the EC50 NFkB pathway THP1-Dual cells [3] was 2.8 nM.
“CEACAM5_Tusamitamab-PEG12-R848 ADC [Example 14]” gave an EC50 ([2]; Table 7a, 96 hours) of 2.8 nM.
In the case of CEACAM5_Tusamitamab-PEG24-R848, the “% of Immune cell-mediated killing activity” value (human MKN-45 tumor cells) is reported as 57%.
“CEACAM5_Tusamitamab-PEG24-R848 ADC (Example 20a) (antibody)” gave an EC50 NFkB pathway THP1-Dual cells [3] of 0.9 nM.
For “CEACAM5_Tusamitamab-PEG24-R848 ADC [Example 20a]”, the EC50 ([2]; Table 7a, 96 hours) was 0.9 nM.
For “CEACAM5_Tusamitamab_E152C_S375C-PEG24-R848 ADC [Example 43]”, the EC50 (human TLR7; Table 1c, 96 hours, read-out: EC50 HEKBlue-hTLR7) was over 1000 nM and the EC50 ([2]; Table 7b, 96 hours) was 2 nM.
In the case of “EGFR_cetuximab-PEG24-R848 ADC [Example 23]”, the EC50 (human TLR7; [4]) is reported as over 1000 nM.
With Irrelevant human IgG1 (antibody) the Internalized fluorescent intensity (Median) on HEKBlue-hTLR7-CEACAM5, 4 hours (human CEACAM5 (human)) was 144, the Internalized fluorescent intensity (Median) on HEKBlue-hTLR7-CEACAM5, 24 hours (human CEACAM5 (human)) was 525 and the Internalized fluorescent intensity (Median) on HEKBlue-hTLR7-CEACAM5, 48 hours (human CEACAM5 (human)) was 738. The Internalized fluorescent intensity (Median) on HEKBlue-hTLR7-CEACAM5, 72 hours (human CEACAM5 (human)) was 833, the Internalized fluorescent intensity (Median) on HEKBlue-hTLR8-CEACAM5, 4 hours (human CEACAM5 (human)) was 68 and the Internalized fluorescent intensity (Median) on HEKBlue-hTLR8-CEACAM5, 24 hours (human CEACAM5 (human)) was 120. It also gave an Internalized fluorescent intensity (Median) on HEKBlue-hTLR8-CEACAM5, 48 hours (human CEACAM5 (human)) of 151 and an Internalized fluorescent intensity (Median) on HEKBlue-hTLR8-CEACAM5, 72 hours (human CEACAM5 (human)) of 167.

— patent US20260152497A1, “MIDAZO[4,5-c]QUINOLINE-4-AMINE COMPOUNDS AND CONJUGATES THEREOF, THEIR PREPARATION, AND THEIR [sequence] APPLICATIONS” (SANOFI, priority 2021, published 2026)
